This passage reports Normal melting temperature results from the NIST ThermoML archive (doi:10.1021/je0502804).

For the series the following is noted: Crystal; visual observation.

± gives the expanded uncertainty stated by the source.

Regarding `Clc1cc(Cl)c(Cl)nc1Cl` [2,3,5,6-tetrachloropyridine], the Normal melting temperature is 90.00 ± 0.5 °C.
The result for `Clc1nc(Cl)c(Cl)c(Cl)c1Cl` [pentachloropyridine] reads 124.00 ± 0.5 °C.
